Experimental data reported in patent publication US8673882B2, “Inhibitors of autotaxin” (University of Tennessee Research Foundation, priority 2011, dated 2014).
Where two headings read alike, the source gives them in different places.

Experiments:
recombinant human ATX = recombinant human ATX (Homo sapiens, UniProt Q13822); test: Autotaxin inhibition screening assay (FS-3 FRET substrate); assay type: biochemical; conditions: for remaining activity at 10 µM: 1 μM FS-3, 37° C., read-out: ATX Activity, % control (10 μM); for inhibition at 10 µM: read-out: inhibition (reduction) of FS3 hydrolysis
Procedure: A 10 μM concentration of the compound is added to 2 nM recombinant human ATX and the FRET (Fluorescence Resonance Energy Transfer) ATX substrate FS-3.
As the first level of screen, 50 μl of recombinant-ATX (2 nM in final concentration) in assay buffer [(Tris 50 mM, NaCl 140 mM, KCl 5 mM, CaCl2 1 mM, MgCl2 1 mM (pH 8.0)] was mixed with 25 μL of FS-3 (Echelon Biosciences, Inc., Salt lake city, Utah), final concentration 1 μM, and 25 μl of test compound was dissolved in assay buffer with 40 μM bovine serum albumin (Sigma, St. Louis, Mo.) in 96-well Costar black-well plate. FS-3 fluorescence at excitation and emission wavelengths of 485 and 538 nm, respectively, were monitored using a FLEXstation II (Molecular Devices, Sunnyvale, Calif.) for 2 h of incubation at 37° C. The differences between time 0 and 120 min were calculated individually and normalized to the vehicle control. The mean±SD of triplicate samples was expressed as percentage of ATX activity. The ATX activity in the presence of the test compounds was compared to vehicle using the […] p<0.05 was considered significant.
The first level of testing was done using 10 μM concentrations of the compounds shown in Tables 1 and 2 added to 2 nM recombinant human ATX and the FRET substrate FS-3. After a 2 h incubation the amount of FS3 hydrolyzed was measured and the residual ATX activity was expressed as a percent of the vehicle-treated sample less the autolysis of FS3 in the absence of ATX.

NPP6 = target: T1, NPP6 (Homo sapiens, UniProt Q6UWR7); test: NPP-6 inhibition assay (pNPPC substrate); assay type: biochemical; conditions: 10 μM compound; 8.3 nM enzyme; 10 μM pNPPC; read-out: NPP6 Activity, % control (10 μM)
T1 sequence (Q6UWR7 23-419): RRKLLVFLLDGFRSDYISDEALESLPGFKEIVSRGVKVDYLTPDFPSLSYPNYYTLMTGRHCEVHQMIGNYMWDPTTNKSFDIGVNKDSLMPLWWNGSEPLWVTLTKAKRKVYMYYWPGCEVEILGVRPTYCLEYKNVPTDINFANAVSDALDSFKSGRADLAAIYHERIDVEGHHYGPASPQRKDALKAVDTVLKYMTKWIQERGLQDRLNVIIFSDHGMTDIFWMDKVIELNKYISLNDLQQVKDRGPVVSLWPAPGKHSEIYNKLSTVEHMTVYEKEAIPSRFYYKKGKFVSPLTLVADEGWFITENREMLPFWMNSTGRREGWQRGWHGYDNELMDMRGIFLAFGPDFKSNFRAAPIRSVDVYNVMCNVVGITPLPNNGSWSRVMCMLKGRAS
Procedure: NPP6 and NPP7 are the only NPP isoforms other than ATX that are known to utilize lysophospholipid phosphodiesters as substrates. Therefore, the specificity of the chemical compounds of the invention regarding ATX was addressed by determining the activity of NPP6 and NPP7 in the presence and absence of these analogs.
Inhibition of NPP6 and NPP7 was evaluated using recombinant, purified proteins, the synthetic substrate para-nitrophenylphosphocholine (pNPPC) and a Synergy II plate reader (BioTek, Winooski, Vt.). The final concentration of each enzyme was 8.3 nM and pNPPC was 10 μM. All analogs were tested at single 10 μM concentrations. Absorbance of liberated para-nitrophenol at 405 nm was determined up to 1 hour (where responses were linear) and was normalized to vehicle control.

[1] = 10 μM compound, 2 nM recombinant human ATX, 2 h

Compound	remaining activity at 10 µM (recombinant human ATX; [1]) [%]	inhibition at 10 µM (recombinant human ATX; [1]) [%]	remaining activity at 10 µM (NPP6) [%]	inhibition at 10 µM (recombinant human ATX) [%]
CCCCCCCCCCC/C=C/c1ccc2cc(CP(=O)(O)O)ccc2c1 [Compound 30b, (E)-6-Tridec-1-enyl-naphthalen-2-yl-methylphosphonic acid]	17.3	83	104	–
CCCCCCCCCCCCCCCc1ccc(CP(=O)(O)O)cc1 [Compound 22, 4-Pentadecylbenzylphosphonic acid]	5.2	–	96.5	95
